Measurements: patent US9840513B2 (AbbVie S.à.r.l., priority 2015, dated 2017)

Biological target: T1, F508delCFTR cell surface expression in CFBE41o-F508delCFTR-HRP cells (Homo sapiens, UniProt P13569, DEL508-508)
T1 construct: fused on or other part: Horseradish peroxidase (HRP) reporter inserted in the fourth exofacial (extracellular) loop of CFTR; expression is doxycycline-inducible
Assay: Cell Surface Expression-Horse Radish Peroxidase (CSE-HRP) Assay
Type: cell-based
Details: for EC50: CFBE41o-F508delCFTR-HRP cells, 18-24 hours at 33° C., 8-point curve, highest concentration 20 μM; for Maximum % activity (%): maximum at any tested concentration, normalized to on-plate positive control (3 μM)
From the text: Cell Surface Expression-Horse Radish Peroxidase (CSE-HRP) Assay:
A cellular assay for measuring the F508delCFTR cell surface expression after correction with test compounds was developed in human lung derived epithelial cell line (CFBE41o-) (Veit G et al, (2012) Mol Biol Cell. 23(21): 4188-4202). This was achieved by expressing the F508delCFTR mutation along with a horseradish peroxidase (HRP) in the fourth exofacial loop and then measuring the HRP activity using luminescence readout from these cells, CFBE41o-F508delCFTR-HRP, that were incubated overnight with the test corrector compounds. Briefly, for this primary assay, the CFBE41o-F508delCFTR-HRP cells were plated in 384-well plates (Greiner Bio-one; Cat 781080) at 4,000 cells/well along with 0.5 μg/mL doxycycline to induce the F508delCFTR-HRP expression and further incubated at 37° C., 5% CO2 for 72 hours. The test compounds were then added at the required concentrations and further incubated for 18-24 hours at 33° C. The highest concentration tested was 20 μM with an 8-point concentration response curve using a 3-fold dilution. Three replicate plates were run to determine one EC50. All plates contained negative controls (dimethyl sulfoxide, DMSO) and positive controls (3 μM of 3-[(2R,4R)-4-({[1-(2,2-difluoro-1,3-benzodioxol-5-yl)cyclopropyl]carbonyl}amino)-7-methoxy-3,4-dihydro-2H-chromen-2-yl]benzoic acid) as well as on-plate concentration response of the positive control. Post incubation, the plates were washed 5× times with Dulbecco's phosphate buffered saline (DPBS), followed by the addition of the HRP substrate, luminol (50 μL), and measuring the HRP activity using luminescence readout on EnVision® Multilabel Plate Reader (Perkin Elmer; product number 2104-0010). The raw counts from the experiment are analyzed using Accelrys® Assay Explorer v3.3.
Z′ greater than 0.5 was used as passing quality control criteria for the plates.
The Z′ is defined as: 1−[3*SDPositive Control+3*SDNegative Control/Absolute(MeanPositive Control−MeanNegative Control)] wherein “SD” is standard deviation.
The % activity measured at each of the 8 test concentrations of the test compound was normalized to the on-plate positive control using the following formula: % activity=[(test compound response DMSO response)/(positive control response DMSO response)]*100
The maximum % activity achieved for the test compound at any tested concentration is presented in Table 1 along with the EC50 calculated using the following general sigmoidal curve with variable Hill slope equation (described as Model 42 in the Accelrys® Assay Explorer v3.3 software): y=(a−d)/(1+(x/c)^b)+d
General sigmoidal curve with concentration, response, top, bottom, EC50 and Hill slope.
This model describes a sigmoidal curve with an adjustable baseline, a. The equation can be used to fit curves where response is either increasing or decreasing with respect to the independent variable, “x”.
“x” is a concentration of drug under test.
“a” is the maximum response, and “d” is the minimum response
“c” is the inflection point (EC50) for the curve. That is, “y” is halfway between the lower and upper asymptotes when x=c.
“b” is the slope-factor or Hill coefficient. The sign of b is positive when the response increases with increasing dose and is negative when the response decreases with increasing dose (inhibition).

T1 sequence (P13569 with tags, fused parts or gaps DEL508-508 limits assumed): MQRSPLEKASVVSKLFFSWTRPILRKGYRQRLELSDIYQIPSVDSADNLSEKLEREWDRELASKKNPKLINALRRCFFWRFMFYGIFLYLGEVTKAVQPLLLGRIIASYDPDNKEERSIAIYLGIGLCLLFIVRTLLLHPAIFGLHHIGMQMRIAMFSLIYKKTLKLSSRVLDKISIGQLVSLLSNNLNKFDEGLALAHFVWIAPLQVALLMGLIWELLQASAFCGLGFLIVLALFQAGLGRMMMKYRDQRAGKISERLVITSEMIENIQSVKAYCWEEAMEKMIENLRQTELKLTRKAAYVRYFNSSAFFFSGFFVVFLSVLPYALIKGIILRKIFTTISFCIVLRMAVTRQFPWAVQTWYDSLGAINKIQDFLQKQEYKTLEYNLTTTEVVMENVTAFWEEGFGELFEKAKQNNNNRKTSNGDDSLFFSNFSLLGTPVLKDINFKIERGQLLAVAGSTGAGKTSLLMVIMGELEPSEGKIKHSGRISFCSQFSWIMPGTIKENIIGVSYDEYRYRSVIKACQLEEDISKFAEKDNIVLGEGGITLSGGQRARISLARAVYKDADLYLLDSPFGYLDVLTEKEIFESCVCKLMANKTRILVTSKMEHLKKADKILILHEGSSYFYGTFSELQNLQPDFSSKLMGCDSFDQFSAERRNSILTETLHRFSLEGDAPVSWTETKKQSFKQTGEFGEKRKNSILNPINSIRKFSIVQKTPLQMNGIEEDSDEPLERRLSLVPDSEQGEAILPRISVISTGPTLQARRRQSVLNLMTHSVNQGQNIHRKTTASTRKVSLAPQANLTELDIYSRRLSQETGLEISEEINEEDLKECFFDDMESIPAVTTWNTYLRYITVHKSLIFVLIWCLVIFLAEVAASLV
T1 sequence (P13569 919-1480 limits assumed, stated change not applied): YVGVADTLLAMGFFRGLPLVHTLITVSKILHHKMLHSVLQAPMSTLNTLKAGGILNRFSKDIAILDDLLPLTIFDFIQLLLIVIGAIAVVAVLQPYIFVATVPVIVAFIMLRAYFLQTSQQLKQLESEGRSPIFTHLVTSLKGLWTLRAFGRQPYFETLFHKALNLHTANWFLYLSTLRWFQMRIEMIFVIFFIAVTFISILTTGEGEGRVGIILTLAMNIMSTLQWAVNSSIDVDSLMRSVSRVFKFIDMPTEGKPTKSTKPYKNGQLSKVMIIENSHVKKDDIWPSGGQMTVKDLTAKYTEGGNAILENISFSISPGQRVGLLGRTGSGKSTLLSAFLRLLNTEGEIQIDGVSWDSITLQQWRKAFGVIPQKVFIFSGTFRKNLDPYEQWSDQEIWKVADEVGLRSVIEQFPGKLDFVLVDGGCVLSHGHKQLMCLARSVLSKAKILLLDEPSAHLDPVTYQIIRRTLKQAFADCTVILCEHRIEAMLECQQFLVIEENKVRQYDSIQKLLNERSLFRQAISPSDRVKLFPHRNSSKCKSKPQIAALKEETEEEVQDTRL

Row | SMILES | EC50 [nM] | Maximum % activity (%)
1 | C[C@@]1(C(=O)Nc2cc(C3CC3)nn(-c3ccc(C(=O)O)cc3)c2=O)COc2cc3c(cc21)OC(F)(F)O3 [Example 31, 4-[3-cyclopropyl-5-{[(7S)-2,2-difluoro-7-methyl-6,7-dihydro-2H-furo[2,3-f][1,3]benzodioxole-7-carbonyl]amino}-6-oxopyridazin-1(6H)-yl]benzoic acid] | > 20000 | 7
2 | CC(C)OC(=O)[C@H]1CC[C@H]([C@H]2C[C@@H](NC(=O)[C@@]3(C)COc4cc5c(cc43)OC(F)(F)O5)c3ccc(OC(F)(F)F)cc3O2)CC1 [Example 194, propan-2-yl trans-4-[(2R,4R)-4-{[(7R)-2,2-difluoro-7-methyl-6,7-dihydro-2H-furo[2,3-f][1,3]benzodioxole-7-carbonyl]amino}-7-(trifluoromethoxy)-3,4-dihydro-2H-1-benzopyran-2-yl]cyclohexane-1-carboxylate] | 60 | 143
3 | C[C@]1(C(=O)N[C@@H]2C[C@H](C3CCC(CO)(C(=O)O)CC3)Oc3cc(OC(F)(F)F)ccc32)COc2cc3c(cc21)OC(F)(F)O3 (stereo partly drawn) [Example 288, 4-[(2R,4R)-4-{[(7R)-2,2-difluoro-7-methyl-6,7-dihydro-2H-furo[2,3-f][1,3]benzodioxole-7-carbonyl]amino}-7-(trifluoromethoxy)-3,4-dihydro-2H-1-benzopyran-2-yl]-1-(hydroxymethyl)cyclohexane-1-carboxylic acid] | 290 | 138
4 | CCOC(=O)C1([C@H]2C[C@@H](NC(=O)[C@@]3(C)COc4cc5c(cc43)OC(F)(F)O5)c3ccc(OC(F)(F)F)cc3O2)CC1 [Example 164, ethyl 1-[(2R,4R)-4-{[(7R)-2,2-difluoro-7-methyl-6,7-dihydro-2H-furo[2,3-f][1,3]benzodioxole-7-carbonyl]amino}-7-(trifluoromethoxy)-3,4-dihydro-2H-1-benzopyran-2-yl]cyclopropane-1-carboxylate] | 106 | 122
5 | COc1ccc2c(c1)O[C@@H](c1ccc(C(=O)NC3CCS(=O)(=O)CC3)cn1)C[C@H]2NC(=O)[C@@]1(C)COc2cc3c(cc21)OC(F)(F)O3 [Example 217, 6-[(2R,4R)-4-{[(7R)-2,2-difluoro-7-methyl-6,7-dihydro-2H-furo[2,3-f][1,3]benzodioxole-7-carbonyl]amino}-7-methoxy-3,4-dihydro-2H-1-benzopyran-2-yl]-N-(1,1-dioxo-1lambda^6-thian-4-yl)pyridine-3-carboxamide] | 120 | 104
6 | CCOC(=O)[C@H]1CC[C@H]([C@@H]2C[C@H](NC(=O)[C@@]3(C)COc4cc5c(cc43)OC(F)(F)O5)c3ccc(OC(F)(F)F)cc3O2)CC1 [Example 147, ethyl trans-4-[(2S,4S)-4-{[(7R)-2,2-difluoro-7-methyl-6,7-dihydro-2H-furo[2,3-f][1,3]benzodioxole-7-carbonyl]amino}-7-(trifluoromethoxy)-3,4-dihydro-2H-1-benzopyran-2-yl]cyclohexane-1-carboxylate] | 2240 | 79
7 | COc1ccc2c(c1)O[C@@H](c1ccc(C(=O)N3CCC(O)(CCO)C3)cn1)C[C@H]2NC(=O)[C@@]1(C)COc2cc3c(cc21)OC(F)(F)O3 (stereo partly drawn) [Example 238, (7R)-2,2-difluoro-N-[(2R,4R)-2-{5-[3-hydroxy-3-(2-hydroxyethyl)pyrrolidine-1-carbonyl]pyridin-2-yl}-7-methoxy-3,4-dihydro-2H-1-benzopyran-4-yl]-7-methyl-6,7-dihydro-2H-furo[2,3-f][1,3]benzodioxole-7-carboxamide] | 80 | 113
8 | Cc1cc(NC(=O)[C@@]2(C)COc3cc4c(cc32)OC(F)(F)O4)nc(-c2cccc(C(=O)O)c2)c1 [Example 103, 3-(6-{[(7R)-2,2-difluoro-7-methyl-6,7-dihydro-2H-furo[2,3-f][1,3]benzodioxole-7-carbonyl]amino}-4-methylpyridin-2-yl)benzoic acid] | 1720 | 170
9 | CC1(C(=O)Nc2nnc(-c3ccc(C(=O)O)cc3)s2)COc2cc3c(cc21)OC(F)(F)O3 (stereo not shown) [Example 53, 4-{5-[(2,2-difluoro-7-methyl-6,7-dihydro-2H-furo[2,3-f][1,3]benzodioxole-7-carbonyl)amino]-1,3,4-thiadiazol-2-yl}benzoic acid] | > 20000 | 1
10 | C[C@]1(C(=O)Nc2cccc(N3CCC(S(C)(=O)=O)C3)n2)COc2cc3c(cc21)OC(F)(F)O3 (stereo partly drawn) [Example 109, (7R)-2,2-difluoro-N-{6-[3-(methanesulfonyl)pyrrolidin-1-yl]pyridin-2-yl}-7-methyl-6,7-dihydro-2H-furo[2,3-f][1,3]benzodioxole-7-carboxamide] | 580 | 89
11 | C[C@]1(C(=O)Nc2cccc(N3CC[C@@H](O)C3)n2)COc2cc3c(cc21)OC(F)(F)O3 [Example 91, (7R)-2,2-difluoro-N-{6-[(3R)-3-hydroxypyrrolidin-1-yl]pyridin-2-yl}-7-methyl-6,7-dihydro-2H-furo[2,3-f][1,3]benzodioxole-7-carboxamide] | 210 | 116
12 | COC(=O)c1ccc([C@H]2C[C@@H](NC(=O)[C@@]3(C)COc4cc5c(cc43)OC(F)(F)O5)c3ccc(OC)cc3O2)nc1 [Example 89E, methyl 6-[(2R,4R)-4-{[(7R)-2,2-difluoro-7-methyl-6,7-dihydro-2H-furo[2,3-f][1,3]benzodioxole-7-carbonyl]amino}-7-methoxy-3,4-dihydro-2H-1-benzopyran-2-yl]pyridine-3-carboxylate] | 18 | 116
13 | CCCN(CCO)C(=O)c1ccc([C@H]2C[C@@H](NC(=O)[C@@]3(C)COc4cc5c(cc43)OC(F)(F)O5)c3ccc(OC)cc3O2)nc1 [Example 209, 6-[(2R,4R)-4-{[(7R)-2,2-difluoro-7-methyl-6,7-dihydro-2H-furo[2,3-f][1,3]benzodioxole-7-carbonyl]amino}-7-methoxy-3,4-dihydro-2H-1-benzopyran-2-yl]-N-(2-hydroxyethyl)-N-propylpyridine-3-carboxamide] | 30 | 122
14 | Cc1ccc(NC(=O)[C@@]2(C)COc3cc4c(cc32)OC(F)(F)O4)nc1-c1cc(C(=O)O)cs1 [Example 127, 5-(6-{[(7R)-2,2-difluoro-7-methyl-6,7-dihydro-2H-furo[2,3-f][1,3]benzodioxole-7-carbonyl]amino}-3-methylpyridin-2-yl)thiophene-3-carboxylic acid] | 460 | 140
15 | COC(=O)C1CCN(c2cccc(NC(=O)C3(C)COc4cc5c(cc43)OC(F)(F)O5)n2)CC1 (stereo not shown) [Example 70, methyl 1-{6-[(2,2-difluoro-7-methyl-6,7-dihydro-2H-furo[2,3-f][1,3]benzodioxole-7-carbonyl)amino]pyridin-2-yl}piperidine-4-carboxylate] | 1300 | 116
16 | Cc1ccc(NC(=O)[C@@]2(C)COc3cc4c(cc32)OC(F)(F)O4)nc1-c1cccc(S(=O)(=O)NC2CC2)c1 [Example 124, (7R)—N-{6-[3-(cyclopropylsulfamoyl)phenyl]-5-methylpyridin-2-yl}-2,2-difluoro-7-methyl-6,7-dihydro-2H-furo[2,3-f][1,3]benzodioxole-7-carboxamide] | 740 | 124
17 | CC1(C(=O)O)CN(c2cccc(NC(=O)[C@@]3(C)COc4cc5c(cc43)OC(F)(F)O5)n2)C1 [Example 96, 1-(6-{[(7R)-2,2-difluoro-7-methyl-6,7-dihydro-2H-furo[2,3-f][1,3]benzodioxole-7-carbonyl]amino}pyridin-2-yl)-3-methylazetidine-3-carboxylic acid] | 1310 | 139
